The source made the active and inactive calls. The rule behind the calls is not given here.
How the values were obtained:
[1] = Antiproliferative activity against human SKHep cells incubated for 72 hrs by MTT assay; type: functional, cell-based
SAS = experiment: Antiproliferative activity against human SAS cells incubated for 72 hrs by MTT assay; type: functional, cell-based
Detroit 551 = experiment: Antiproliferative activity against human Detroit 551 cells incubated for 72 hrs by MTT assay; type: functional, cell-based; details: Detroit 551, 72 h
MDA-MB-231 = experiment: Antiproliferative activity against human MDA-MB-231 cells incubated for 72 hrs by MTT assay; type: functional, cell-based; details: MDA-MB-231, 72 h
AGS = experiment: Antiproliferative activity against human AGS cells incubated for 72 hrs by MTT assay; type: functional, cell-based
HeLa = experiment: Antiproliferative activity against human HeLa cells incubated for 72 hrs by MTT assay; type: functional, cell-based
[2] = Antiproliferative activity against human 786-O cells incubated for 72 hrs by MTT assay; type: functional, cell-based; details: 786-0, 72 h
NCI-H1299 [3] = experiment: Antiproliferative activity against human H1299 cells incubated for 72 hrs by MTT assay; type: functional, cell-based; details: NCI-H1299, 72 h
[4] = Reduction in PTEN protein expression in human H1299 cells at 1 to 10 uM incubated for 24 hrs by Western blotting method; type: functional, cell-based; details: NCI-H1299
NCI-H1299 [5] = experiment: Induction of apoptosis in human H1299 cells assessed as late apoptotic cells level at 5 uM annexin V and propidium iodide double staining based flow cytometry (reference value: 2.62 +/- 0.75%); type: functional
NCI-H1299 [6] = experiment: Induction of apoptosis in human H1299 cells assessed as increase in caspase-7 activation at 1 to 10 uM incubated for 24 hrs by Western blotting method; type: functional, cell-based
Nucleic Acid = experiment: Induction of DNA intercalation of negative supercoiled Escherichia coli pBR322 DNA at 10 uM incubated for 12 hrs by ethidium bromide staining based DNA mobility assay; type: nucleic-acid assay
NCI-H1299 [7] = experiment: Induction of apoptosis in human H1299 cells assessed as increase in caspase-3 activation at 1 to 10 uM incubated for 24 hrs by Western blotting method; type: functional, cell-based
[8] = Reduction in SIRT1 protein expression in human H1299 cells at 1 to 10 uM incubated for 24 hrs by Western blotting method; type: functional, cell-based; details: NCI-H1299
[9] = Reduction in p-Akt protein expression in human H1299 cells at 1 to 10 uM incubated for 24 hrs by Western blotting method; type: functional, cell-based; details: NCI-H1299
NCI-H1299 [10] = experiment: Induction of apoptosis in human H1299 cells assessed as early apoptotic cells level at 1 uM annexin V and propidium iodide double staining based flow cytometry (reference value: 0.74 +/- 0.31%); type: functional
NCI-H1299 [11] = experiment: Induction of apoptosis in human H1299 cells assessed as increase in PARP cleavage at 1 to 10 uM incubated for 24 hrs by Western blotting method; type: functional, cell-based
NCI-H1299 [12] = experiment: Induction of apoptosis in human H1299 cells assessed as early apoptotic cells level at 5 uM annexin V and propidium iodide double staining based flow cytometry (reference value: 0.74 +/- 0.31%); type: functional
NCI-H1299 [13] = experiment: Induction of apoptosis in human H1299 cells assessed as late apoptotic cells level at 10 uM annexin V and propidium iodide double staining based flow cytometry (reference value: 2.62 +/- 0.75%); type: functional
NCI-H1299 [14] = experiment: Induction of apoptosis in human H1299 cells assessed as late apoptotic cells level at 1 uM annexin V and propidium iodide double staining based flow cytometry (reference value: 2.62 +/- 0.75%); type: functional
NCI-H1299 [15] = experiment: Induction of apoptosis in human H1299 cells assessed as decrease in Bcl2 expression at 1 to 10 uM incubated for 24 hrs by Western blotting method; type: functional, cell-based
[16] = Reduction in HDAC6 protein expression in human H1299 cells at 1 to 10 uM incubated for 24 hrs by Western blotting method; type: functional, cell-based; details: NCI-H1299
[17] = Reduction in FOXO3a protein expression in human H1299 cells at 1 to 10 uM incubated for 24 hrs by Western blotting method; type: functional, cell-based; details: NCI-H1299
NCI-H1299 [18] = experiment: Induction of DNA damage in human H1299 cells at 5 uM incubated for 24 hrs by single cell electrophoresis-based alkaline comet assay; type: functional
NCI-H1299 [19] = experiment: Induction of apoptosis in human H1299 cells assessed as increase in BAX cleavage at 1 to 10 uM incubated for 24 hrs by Western blotting method; type: functional, cell-based
NCI-H1299 [20] = experiment: Induction of apoptosis in human H1299 cells assessed as early apoptotic cells level at 10 uM annexin V and propidium iodide double staining based flow cytometry (reference value: 0.74 +/- 0.31%); type: functional

SMILES	IC50 [1] [µM]	IC50 (SAS) [µM]	IC50 (Detroit 551) [µM]	IC50 (MDA-MB-231) [µM]	IC50 (AGS) [µM]	IC50 (HeLa) [µM]	IC50 [2] [µM]	IC50 (NCI-H1299 [3]) [µM]	also measured
COc1ccc2c(c1)C(=O)c1c-2c(N2CCN(C(=O)CN3CCNCC3)CC2)nc2ccccc12	2.22	7.4	2.55	5.45	3.37	> 30	4	5.32	–
COc1ccc2c(c1)/C(=N\OCC1CO1)c1c-2c(N2CCN(CC3CO3)CC2)nc2ccccc12 (stereo not given)	0.99	6.2	7.95	0.79	8.76	0.54	8.8	1.18	Activity [4]: Active; Activity (NCI-H1299 [5]): 8.25%; Activity (NCI-H1299 [6]): Active; Activity (Nucleic Acid): Active; Activity (NCI-H1299 [7]): Active; Activity [8]: Active; Activity [9]: Active; Activity (NCI-H1299 [10]): 1.38%; Activity (NCI-H1299 [11]): Active; Activity (NCI-H1299 [12]): 2.45%; Activity (NCI-H1299 [13]): 17.9%; Activity (NCI-H1299 [14]): 4.5%; Activity (NCI-H1299 [15]): Active; Activity [16]: Active; Activity [17]: Active; Activity (NCI-H1299 [18]): Active; Activity (NCI-H1299 [19]): Active; Activity (NCI-H1299 [20]): 1.6%
COc1ccc2c(c1)/C(=N\OCCN1CCCC1)c1c-2c(O)nc2ccccc12	–	–	–	–	–	–	–	–	Activity (Nucleic Acid): Active
CNCCC(=O)N1CCN(c2nc3ccccc3c3c2-c2ccc(OC)cc2C3=O)CC1	9.1	6.9	2.92	5.89	8.11	1.9	6	5.46	–
COc1ccc2c(c1)C(=O)c1c-2c(N2CCN(C(=O)CNCCN(C)C)CC2)nc2ccccc12	16	19.5	4.59	6.15	14.1	8.17	9.37	6.48	–
COc1ccc2c(c1)C(=O)c1c-2c(N2CCN(C(=O)CNCCO)CC2)nc2ccccc12	6.64	11.3	8.78	5.9	6.55	4.74	6.7	5.41	–
COc1ccc2c(c1)C(=O)c1c-2c(N2CCNCC2)nc2ccccc12	25.3	> 30	5.71	23.8	10.1	15.2	12.5	17.1	–
COc1ccc2c(c1)C(=O)c1c-2c(N2CCN(C(=O)CCN(C)C)CC2)nc2ccccc12	16.6	17	2.84	6.61	8.11	11.7	11.5	5.79	–
COc1ccc2c(c1)C(=O)c1c-2c(N2CCN(C(=O)CN3CCOCC3)CC2)nc2ccccc12	19.9	> 30	–	> 30	21.4	18	> 30	> 30	–
COc1ccc2c(c1)C(=O)c1c-2c(N2CCN(C(=O)CCNCCO)CC2)nc2ccccc12	4.51	9.1	8.38	6.08	3.67	3.13	2.03	5.67	–
COc1ccc2c(c1)C(=O)c1c-2c(N2CCN(C(=O)CCN3CCOCC3)CC2)nc2ccccc12	15.1	> 30	–	21.9	12	14.3	> 30	18.7	–
CNCC(O)CN1CCN(c2nc3ccccc3c3c2-c2ccc(OC)cc2C3=O)CC1 (stereo not given)	3.44	7.4	9.4	6.05	9.58	4.64	6.4	6.89	–
